The source of these data is ChEMBL document CHEMBL4706476, “Novel Tetrahydropyrido[4,3-d]pyrimidines as Potent Inhibitors of Chaperone Heat Shock Protein 90” (J Med Chem, 2016).

The nature of data set [1]: Distribution coefficient, logD of compound at pH 7.4. Type of data set: physicochemical. To be noted: octanol/water.
Data set [2] addresses Heat shock protein HSP 90-alpha (Homo sapiens, UniProt P07900). In words: Displacement of FITC-geldanamycin from N-terminal HSP90alpha (unknown origin) after 30 mins by fluorescence polarization competitive binding assay. On the technique in general: In fluorescence polarisation assays a small probe gives low polarisation when free and higher when bound to something large.

Data set [3] in a line: Permeability of the compound at pH 7.4 by PAMPA. Type of data set: ADME. The settings on record: read-out: permeability.
Data set [4] is described as follows: Intrinsic aqueous solubility of the compound. Type of data set: physicochemical.
Another data set concerns the target Endoplasmin (Homo sapiens, UniProt P14625). In words: Displacement of FITC-geldanamycin from N-terminal GRP94 (unknown origin) after 30 mins by fluorescence polarization competitive binding assay.
Data set [5] in a line: Selectivity ratio of IC50 for inhibition of FITC-geldanamycin binding to N-terminal GRP94 (unknown origin) to IC50 for inhibition of FITC-geldanamycin binding to N-terminal HSP90alpha (unknown origin).
A further data set has as its system HCT-116. In words: cells. To be noted: Homo sapiens, HCT-116, 72 h.
The subject of another data set is MCF7. In words: cells. To be noted: Homo sapiens, MCF7, 72 h.
In a further data set the target is CYP1A2 (Homo sapiens, UniProt P05177). Nature of the data set: Inhibition of CYP1A2 in human liver microsomes at 10 uM using phenacetin as substrate preincubated for 5 mins followed by NADPH addition and measured after 20 mins by LC-MS/MS analysis relative to control. To be noted: probe phenacetin, time 25 min. Type of data set: ADME.

Values after ≈ are worked out from the molar mass of the structure shown.

Chain of Endoplasmin (P14625 whole entry): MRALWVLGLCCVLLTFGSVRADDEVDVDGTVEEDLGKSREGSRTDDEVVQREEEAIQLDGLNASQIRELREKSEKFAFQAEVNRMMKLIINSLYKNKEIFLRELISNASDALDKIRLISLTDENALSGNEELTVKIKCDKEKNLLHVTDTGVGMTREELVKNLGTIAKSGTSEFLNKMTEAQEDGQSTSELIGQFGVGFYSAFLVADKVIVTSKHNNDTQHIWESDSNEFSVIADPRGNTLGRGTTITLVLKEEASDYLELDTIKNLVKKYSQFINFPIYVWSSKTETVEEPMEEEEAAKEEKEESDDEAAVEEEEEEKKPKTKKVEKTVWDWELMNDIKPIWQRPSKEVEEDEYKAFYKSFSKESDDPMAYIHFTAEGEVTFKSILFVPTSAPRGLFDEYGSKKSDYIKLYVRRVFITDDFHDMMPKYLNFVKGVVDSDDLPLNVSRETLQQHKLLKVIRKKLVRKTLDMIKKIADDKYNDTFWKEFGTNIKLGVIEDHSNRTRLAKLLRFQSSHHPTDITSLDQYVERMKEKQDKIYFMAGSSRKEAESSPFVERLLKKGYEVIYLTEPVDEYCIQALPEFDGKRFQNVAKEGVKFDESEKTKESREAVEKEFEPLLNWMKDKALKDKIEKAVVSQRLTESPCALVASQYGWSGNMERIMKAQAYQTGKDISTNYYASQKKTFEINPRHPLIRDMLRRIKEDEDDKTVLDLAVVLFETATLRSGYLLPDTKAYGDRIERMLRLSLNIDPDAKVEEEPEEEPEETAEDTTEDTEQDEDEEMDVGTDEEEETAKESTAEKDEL
Chain of CYP1A2 (P05177 whole entry): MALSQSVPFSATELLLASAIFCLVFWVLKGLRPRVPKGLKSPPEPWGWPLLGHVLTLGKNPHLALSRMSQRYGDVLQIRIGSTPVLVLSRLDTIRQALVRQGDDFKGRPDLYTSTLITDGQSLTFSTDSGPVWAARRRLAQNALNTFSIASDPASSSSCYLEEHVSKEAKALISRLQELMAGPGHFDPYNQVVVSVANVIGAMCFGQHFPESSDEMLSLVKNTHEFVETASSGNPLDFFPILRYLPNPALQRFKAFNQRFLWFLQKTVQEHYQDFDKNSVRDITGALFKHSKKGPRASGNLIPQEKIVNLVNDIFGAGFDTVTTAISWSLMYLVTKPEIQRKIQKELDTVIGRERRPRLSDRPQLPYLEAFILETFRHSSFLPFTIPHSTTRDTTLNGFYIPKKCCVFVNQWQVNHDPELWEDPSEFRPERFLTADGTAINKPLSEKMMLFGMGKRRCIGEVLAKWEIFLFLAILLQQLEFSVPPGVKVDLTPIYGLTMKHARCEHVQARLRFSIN
Description for HCT-116: Antiproliferative activity against human HCT-116 cells assessed as reduction in cell viability incubated for 72 hrs by MTT assay

In general, logD refers to lipophilicity at a set pH, counting ionised and neutral species. Lower therefore signals a more hydrophilic compound. Usually IC50 stands for the concentration needed to halve the response being measured. Broadly, the solubility is the concentration that dissolves in the medium under given conditions. `CC(C)c1cc(C(=O)N2CCc3nc(OCCN(C)C)ncc3C2)c(O)cc1O` gave a logD in data set [1] of 1.04. Moreover, the IC50 in [2] came to 30 nM; on Endoplasmin, 290 nM; in the data set with HCT-116, 2380 nM; with MCF7, 1580 nM. Further, the Papp in data set [3] came out at 3.25 ×10⁻⁶ cm/s. For the same compound, the concentration in solution in data set [4] (solubility) came to 148 µg/mL (≈ 370 µM). In [5], the Ratio IC50 was 9.7.

In data set [1], `CNc1nc(OCCOC)nc2c1CN(C(=O)c1cc(C(C)C)c(O)cc1O)CC2` returned a logD of 2.21. In addition, the IC50 in data set [2] came to 17 nM; at Endoplasmin it was 196 nM; in the data set with HCT-116 it was 270 nM; in the data set on MCF7, 290 nM. Moreover, the Papp in data set [3] stood at 57.5 ×10⁻⁶ cm/s. This compound also showed a solubility in data set [4] of 178 µg/mL (≈ 427 µM). The Ratio IC50 in [5] was 11.5.

The compound `COCCOc1nc2c(c(OC)n1)CN(C(=O)c1cc(C(C)C)c(O)cc1O)CC2` gave a logD in [1] of 2.56. For the same compound, the IC50 in data set [2] was determined as 30 nM; at Endoplasmin it was 232 nM; in the data set on HCT-116, 250 nM; with MCF7, 140 nM. Further, in data set [3], the Papp was 75.8 ×10⁻⁶ cm/s. The compound further showed a solubility in data set [4] of 93.5 µg/mL (≈ 224 µM). Further, the Ratio IC50 in data set [5] is 7.7.

For `COCCOc1nc2c(c(OC(C)C)n1)CN(C(=O)c1cc(C(C)C)c(O)cc1O)CC2`, the logD in [1] is 3.84. Moreover, the IC50 in [2] was 58 nM; on Endoplasmin, 1320 nM; in the data set on HCT-116, 740 nM; in the data set on MCF7 it was 250 nM. Besides, the Papp in data set [3] was determined as 79.4 ×10⁻⁶ cm/s. Also, the solubility in data set [4] was determined as 40.2 µg/mL (≈ 90.2 µM). For the same compound, in data set [5], the Ratio IC50 was 22.7.

As for `CCOc1nc(OCCOC)nc2c1CN(C(=O)c1cc(C(C)C)c(O)cc1O)CC2`, the logD in data set [1] was 2.74. The IC50 in data set [2] was found to be 26 nM; on Endoplasmin it was 608 nM; in the data set with HCT-116 it was 320 nM; with MCF7, 180 nM. Also, the Papp in [3] was determined as 77.3 ×10⁻⁶ cm/s. The compound further registered a solubility in data set [4] of 86.1 µg/mL (≈ 200 µM). The Ratio IC50 in data set [5] was 23.4.

What is called inhibition is the relative decrease from the control value, in per cent. As for `O=c1cc(-c2ccccc2)oc2c1ccc1ccccc12` [ALPHA-NAPHTHOFLAVONE], the inhibition at 20 min, 10 µM against CYP1A2 turned out to be 76%.
